# Laboratory results: patent publication US20250361230A1, “LATS Inhibitors and Uses Thereof” (The USA, as Represented by the Secretary, Dept. of Heath …, priority 2022, published 2025)
# Target: T1, AKT Kinase-NanoLuc fusion in HEK-293 cells (Homo sapiens, UniProt P31749)
# T1 construct: host or cells: HEK-293
# Test: NanoBRET target engagement assay in transfected HEK-293 cells, AKT
# Type: cell-based
# Conditions: Table 28, NanoBRET, HEK-293 cells; read-out: AKT1 (Cellular) IC50
# Excerpt: The NanoBRET™ assay measures kinase engagement in real time in the context of the intact cell. The assay uses a Kinase-NanoLuc® fusion vector expressing a kinase protein to which a luciferase tag has been added, a cell-permeant fluorescent NanoBRET™ tracer, a NanoLuc® substrate, and an extracellular NanoLuc® inhibitor. Upon expression of the luciferase-tagged kinase, cells will produce a strong BRET signal only in the presence of the NanoBRET™ tracer. The extracellular NanoLuc® inhibitor ensures that the BRET signal observed emanates only from live cells. Because the BRET signal has tight distance constraints, addition of the test compound will decrease the BRET signal if the compound competes with the NanoBRET™ tracer for binding to the kinase domain. Under the appropriate tracer conditions established by the manufacturer, quantitative intracellular affinity and relative potency can then be determined using Mass Action model equations.
# HEK-293 cells were purchased from ATCC. FuGENEHD Transfection Reagent, Kinase-NanoLuc® fusion plasmids, Transfection Carrier DNA, NanoBRET™ Tracers and dilution buffer, NanoBRET™ Nano-Glo Substrate, Extracellular NanoLuc® Inhibitor were obtained from Promega.
# Assays were conducted following Promega assay protocol with some modifications as described further below. HEK-293 Cells were transiently transfected with Kinase-NanoLuc® Fusion Vector DNA by FuGENE HD Transfection Reagent. Test compounds were delivered into 384 well assay plate by Echo 550 (Labcyte Inc, Sunnyvale, CA). Transfected cells were harvested and mixed with NanoBRET™ Tracer Reagent and dispensed into 384 well plates and incubated at 37° C. in 5% CO2 cell culture incubator for 1 hour. The NanoBRET™ Nano-Glo Substrate plus Extracellular NanoLuc® Inhibitor Solution were added into the wells of the assay plate and incubated for 2-3 minutes at room temperature. The donor emission wavelength (460 nm) and acceptor emission wavelength (600 nm) were measured in the EnVision plate reader. The BRET Ratios were calculated. BRET Ratio=[(Acceptor sample÷Donor sample)−(Acceptor no-tracer control÷Donor no-tracer control)]. The IC50 values of compounds were calculated with Prism GraphPad program.
# • 1. Transient Transfection of HEK-293 Cells NanoLuc® Fusion Vector DNA • 1). Cultivate HEK-293 cells (70-80% confluence) appropriately prior to assay. Trypsinize and collect HEK-293 cells. • 2). Prepare lipid: DNA complexes as follows: • a. Prepare a […] solution of DNA in Opti-MEM™ without serum that consists of the following ratios of carrier DNA and DNA encoding NanoLuc® fusion. 9.0 µg/mL of Transfection Carrier DNA, […] of NanoLuc® fusion vector DNA and 1 mL of Opti-MEM™ without phenol red. Mix thoroughly. • b. Add 30 μl of FuGENE HD Transfection Reagent into each milliliter of DNA mixture to form lipid: DNA complex. • c. Mix by inversion 10 times. • d. Incubate at ambient temperature for 20 minutes to allow complexes to form. • 3). In a sterile, conical tube, mix 1 part of lipid: DNA complex with 20 parts of HEK-293 cells in suspension. Mix gently by inversion 5 times. • 4). Dispense cells+lipid: DNA complex into a sterile tissue culture dish and incubate for 22-24 hours. • 2. Addition of Test Compounds (dry plate shooting): Each test compound is delivered from the compound source plate to the wells of 384-well white NBS plate by Echo 550. • 3. Preparation of Cells with NanoBRET™ Tracer Reagent • 1). Remove medium from dish with transfected HEK-293 cells via aspiration, trypsinize and allow cells to dissociate from the dish. • 2). Neutralize trypsin using medium containing serum and centrifuge at 200× g for 5 minutes to pellet the cells. Adjust the cell density to 2×10^5 cells/mL in Opti-MEM™ without phenol red. • 3). Prepare Complete 20× NanoBRET™ Tracer Reagent with Tracer Dilution Buffer. • 4). Dispense one part of Complete 20× NanoBRET™ Tracer Reagent to 20 parts of cells in the tube. Mix gently by inversion 10 times. • 5). […]
# T1 sequence (P31749 whole entry, the tested form may be a part): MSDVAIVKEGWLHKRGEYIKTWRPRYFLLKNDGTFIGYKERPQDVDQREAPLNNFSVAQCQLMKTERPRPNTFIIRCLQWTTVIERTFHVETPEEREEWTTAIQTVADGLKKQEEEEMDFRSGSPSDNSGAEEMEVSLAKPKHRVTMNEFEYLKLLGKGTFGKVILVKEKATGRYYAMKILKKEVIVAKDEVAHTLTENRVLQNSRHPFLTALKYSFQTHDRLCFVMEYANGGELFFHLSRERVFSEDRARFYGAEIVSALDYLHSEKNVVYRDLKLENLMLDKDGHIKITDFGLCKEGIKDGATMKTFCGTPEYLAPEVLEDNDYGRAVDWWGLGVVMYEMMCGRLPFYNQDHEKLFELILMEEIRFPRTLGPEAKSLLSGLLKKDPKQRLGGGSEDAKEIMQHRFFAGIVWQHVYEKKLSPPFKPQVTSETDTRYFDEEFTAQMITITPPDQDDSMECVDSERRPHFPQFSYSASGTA
row,IC50,Compound
1,> 50 µM,"C[C@@H]1CNC[C@H](C)[C@@]1(O)c1ccc(-c2ccnc3[nH]cc(F)c23)cc1 [Compound 2, (3R,4s,5S)-4-(4-(3-fluoro-1H-pyrrolo[2,3-b]pyridin-4-yl)phenyl)-3,5-dimethylpiperidin-4-ol]"
2,8.64 µM,"C[C@@H]1CNC[C@H](C)[C@@]1(O)c1ccc(-c2ccnc3[nH]cc(F)c23)nc1 [Compound 8, (3S,4s,5R)-4-(6-(3-fluoro-1H-pyrrolo[2,3-b]pyridin-4-yl)pyridin-3-yl)-3,5-dimethylpiperidin-4-ol]"
3,16.1 µM,C[C@@H]1CNC[C@H](C)[C@@]1(O)c1c(F)cc(-c2ccnc3[nH]cc(F)c23)cc1F [Compound 13]
4,4.95 µM,"C[C@@H]1CNC[C@H](C)[C@@]1(O)c1ccc(-c2ccnc3[nH]cc(F)c23)cc1OC(F)(F)F [Compound 14, (3S,4s,5R)-4-(4-(3-fluoro-1H-pyrrolo[2,3-b]pyridin-4-yl)-2-(trifluoromethoxy)phenyl)-3,5-dimethylpiperidin-4-ol]"
5,24.1 µM,"C[C@@H]1CN(Cc2ccccn2)C[C@H](C)[C@@]1(O)c1c(F)cc(-c2ccnc3[nH]cc(F)c23)cc1F [Compound 17, (3S,4s,5R)-4-(2,6-difluoro-4-(3-fluoro-1H-pyrrolo[2,3-b]pyridin-4-yl)phenyl)-3,5-dimethyl-1-(pyridin-2-ylmethyl)piperidin-4-ol]"
6,2.51 µM,"C[C@@H]1CN(C)C[C@H](C)[C@@]1(O)c1cnc(-c2ccnc3[nH]cc(F)c23)cc1Cl [Compound 22, (3S,4s,5R)-4-(4-chloro-6-(3-fluoro-1H-pyrrolo[2,3-b]pyridin-4-yl)pyridin-3-yl)-1,3,5-trimethylpiperidin-4-ol]"
7,56.2 µM,"Cc1cc(-c2ccnc3[nH]cc(F)c23)ccc1[C@@]1(O)[C@H](C)CN(C2COC2)C[C@@H]1C [Compound 24, (3S,4s,5R)-4-(4-(3-fluoro-1H-pyrrolo[2,3-b]pyridin-4-yl)-2-methylphenyl)-3,5-dimethyl-1-(oxetan-3-yl)piperidin-4-ol]"
8,17 µM,"Cc1cc(-c2ccnc3[nH]cc(F)c23)ccc1[C@@]1(O)[C@H](C)CN(C(C)C)C[C@@H]1C [Compound 29, (3S,4s, 5R)-4-(4-(3-fluoro-1H-pyrrolo[2,3-b]pyridin-4-yl)-2-methylphenyl)-1-isopropyl-3,5-dimethylpiperidin-4-ol]"
9,> 30 µM,"Cc1cc(-c2ccnc3[nH]cc(F)c23)cc(F)c1C1(O)[C@H](C)CN(C2COC2)C[C@@H]1C (stereo partly drawn) [Compound 30, (3S,5R)-4-(2-fluoro-4-(3-fluoro-1H-pyrrolo[2,3-b]pyridin-4-yl)-6-methylphenyl)-3,5-dimethyl-1-(oxetan-3-yl)piperidin-4-ol]"
10,39.4 µM,"C[C@@H]1CN(C2CCS(=O)(=O)CC2)C[C@H](C)C1(O)c1c(F)cc(-c2ccnc3[nH]cc(F)c23)cc1F (stereo partly drawn) [Compound 31, 4-((3S,5R)-4-(2,6-difluoro-4-(3-fluoro-1H-pyrrolo[2,3-b]pyridin-4-yl)phenyl)-4-hydroxy-3,5-dimethylpiperidin-1-yl)tetrahydro-2H-thiopyran 1,1-dioxide]"
11,> 50 µM,"C[C@@H]1CN(C)C[C@H](C)[C@@]1(O)c1ccc(-c2ccnc3[nH]cc(F)c23)cc1 [Compound 39, (3R,4s,5S)-4-(4-(3-fluoro-1H-pyrrolo[2,3-b]pyridin-4-yl)phenyl)-1,3,5-trimethylpiperidin-4-ol]"
12,8.64 µM,"C[C@@H]1CN(C)C[C@H](C)[C@@]1(O)c1ccc(-c2ccnc3[nH]cc(F)c23)nc1 [Compound 41, (3R,4s,5S)-4-(6-(3-fluoro-1H-pyrrolo[2,3-b]pyridin-4-yl)pyridin-3-yl)-1,3,5-trimethylpiperidin-4-ol]"
13,> 30 µM,"C[C@@H]1CN(C2COC2)C[C@H](C)[C@@]1(O)c1c(F)cc(-c2ccnc3[nH]cc(F)c23)cc1F [Compound 45, (3S,4s,5R)-4-(2,6-difluoro-4-(3-fluoro-1H-pyrrolo[2,3-b]pyridin-4-yl)phenyl)-3, S-dimethyl-1-(oxetan-3-yl)piperidin-4-ol]"
14,31.5 µM,"C[C@@H]1CN(C2CCC2)C[C@H](C)[C@@]1(O)c1c(F)cc(-c2ccnc3[nH]cc(F)c23)cc1F [Compound 46, (3R,4s,5S)-1-cyclobutyl-4-(2,6-difluoro-4-(3-fluoro-1H-pyrrolo[2,3-b]pyridin-4-yl)phenyl)-3,5-dimethylpiperidin-4-ol]"
15,> 30 µM,"Cc1cc(-c2ccnc3[nH]cc(F)c23)ncc1[C@@]1(O)[C@H](C)CN(C2CCS(=O)(=O)CC2)C[C@@H]1C [Compound 51, 4-((3R,4s,5S)-4-(6-(3-fluoro-1H-pyrrolo[2,3-b]pyridin-4-yl)-4-methylpyridin-3-yl)-4-hydroxy-3,5-dimethylpiperidin-1-yl)tetrahydro-2H-thiopyran 1,1-dioxide]"
16,2.97 µM,"Cc1cc(-c2ccnc3[nH]cc(F)c23)ccc1[C@@]1(O)[C@H](C)CN(C2CCC2)C[C@@H]1C [Compound 54, (3R,4s,5S)-1-cyclobutyl-4-(4-(3-fluoro-1H-pyrrolo[2,3-b]pyridin-4-yl)-2-methylphenyl)-3,5-dimethylpiperidin-4-ol]"
17,19.8 µM,"Cc1cc(-c2ccnc3[nH]cc(F)c23)ccc1[C@@]1(O)[C@H](C)CN(C2CCS(=O)(=O)CC2)C[C@@H]1C [Compound 55, 4-((3R,4s, 5S)-4-(4-(3-fluoro-1H-pyrrolo[2,3-b]pyridin-4-yl)-2-methylphenyl)-4-hydroxy-3,5S-dimethylpiperidin-1-yl)tetrahydro-2H-thiopyran 1,1-dioxide]"
18,18.2 µM,C[C@@H]1CN(C(=O)CN)C[C@H](C)[C@@]1(O)c1c(F)cc(-c2ccnc3[nH]cc(F)c23)cc1F [Compound 58]
19,9.35 µM,"Cc1cc(-c2ccnc3[nH]cc(F)c23)ccc1[C@@]1(O)[C@H](C)CN(C(=O)CN)C[C@@H]1C [Compound 60, 2-amino-1-((3R,4s,5S)-4-(4-(3-fluoro-1H-pyrrolo[2,3-b]pyridin-4-yl)-2-methylphenyl)-4-hydroxy-3,5-dimethylpiperidin-1-yl)ethan-1-one]"

row,Compound,IC50
1,"C[C@@H]1CNC[C@H](C)[C@@]1(O)c1ccc(-c2ccnc3[nH]cc(F)c23)cc1Cl [Compound 1, (3S,4S,5R)-4-(2-chloro-4-(3-fluoro-1H-pyrrolo[2,3-b]pyridin-4-yl)phenyl)-3,5-dimethylpiperidin-4-ol]",21.2 µM
2,"C[C@@H]1CNC[C@H](C)[C@@]1(O)c1ccc(-c2ccnc3[nH]cc(F)c23)cc1F [Compound 7, (3S,4s,5R)-4-(2-fluoro-4-(3-fluoro-1H-pyrrolo[2,3-b]pyridin-4-yl)phenyl)-3,5-dimethyl piperidin-4-ol]",8.64 µM
3,"Cc1cc(-c2ccnc3[nH]cc(F)c23)ccc1[C@@]1(O)[C@H](C)CNC[C@@H]1C [Compound 9, (3S,4s,5R)-4-(4-(3-fluoro-1H-pyrrolo[2,3-b]pyridin-4-yl)-2-methylphenyl)-3,5-dimethylpiperidin-4-ol]",15.2 µM
4,"Cc1cc(-c2ccnc3[nH]cc(F)c23)cc(F)c1[C@@]1(O)[C@H](C)CN(C2CCS(=O)(=O)CC2)C[C@@H]1C [Compound 57, 4-((3R,4s,5S)-4-(2-fluoro-4-(3-fluoro-1H-pyrrolo[2,3-b]pyridin-4-yl)-6-methylphenyl)-4-hydroxy-3,5-dimethylpiperidin-1-yl)tetrahydro-2H-thiopyran 1,1-dioxide]",31.9 µM
5,"Cc1cc(-c2ccnc3[nH]cc(F)c23)cc(F)c1[C@@]1(O)[C@H](C)CN(C(=O)CN)C[C@@H]1C [Compound 61, 2-amino-1-((3R,4s,5S)-4-(2-fluoro-4-(3-fluoro-1H-pyrrolo[2,3-b]pyridin-4-yl)-6-methylphenyl)-4-hydroxy-3,5-dimethylpiperidin-1-yl)ethan-1-one]",3.44 µM
